Earlier results, collected in patent US12714758B2, “DOTA-hapten compositions for anti-DOTA/anti-tumor antigen bispecific antibody pretargeted radioimmunotherapy” (Memorial Sloan Kettering Cancer Center, priority 2020, dated 2026).

System: GD2
Details: 24 hours post-injection

^177Lu-S-2-(4-aminobenzyl)-1,4,7,10-tetraazacyclododecane tetraacetic acid chelate [^177Lu-DOTA-Bn]
blood uptake: 0.49±0.09 % ID/g | kidney uptake: 0.83±0.10 % ID/g | tumor uptake (average±SD, n=5): 10.29±2.87 % ID/g
